# Assays:
# [1] = system: human telomerase; test: Telomerase activity by improved TRAP in transfected FaDu cells; type: cell-based
# Description: Inhibition of telomerase activity in cell lysates and intact cells. The modified Telomeric Repeat Amplification Protocol (TRAP) assay (Gan, et al., Pharm. Res., 18:488-493, 2001) was used to detect telomerase activity in cell lysate. The telomerase activity in intact cells was measured using intracellular TRAP, as follows. Cells (1×10^5) were washed twice with PBS and centrifuged. The cell pellet was resuspended in 100 μl of serum-free RPMI 1640 containing 5 u/ml of Streptolysin O, 2 μM of TS primer, and 50 μM of dNTP, and incubated at room temperature for 5 min. The enzyme streptolysin O was used to increase the cell membrane permeability to the TS primer. Upon entering a cell, the TS primer was elongated by the intracellular telomerase in situ. The elongated TS primer was then isolated from the cells and used as the template for PCR amplification. Then 200 μl of RPMI 1640 medium containing 10% FBS was added to the cells to stop the permeating process. […] The cells were then lyzed and the cell lysates, which contained the already extended TS primer, was directly analyzed by TRAP.
# (§1) Effect of hTR antisense on telomere length and telomerase activity. Telomere length (referred to as terminal restriction fragment) was measured using the TALA method. Telomerase activity was measured using the improved TRAP method.
# [2] = system: telomere length in FaDu cells; test: Telomere length (terminal restriction fragment) by TALA in transfected FaDu cells; type: cell-based, human
# From the text: Measurement of telomere length in cultured cells. Two methods were used to measure telomere length. The first method was a solution hybridization based telomere amount and length assay (TALA) (Gan, et al., Pharm. Res., 18:1655-1659, 2001) that measures the mean length of the terminal restriction fragments (TRF). The second method was fluorescence in situ hybridization (FISH) to detect telomere signal and to estimate the approximate length of individual telomere structures at the end of chromosomes. The FISH method is as described in U.S. patent application Ser. No. 09/587,662 and Gan, et al., 2001.
# as §1
# [3] = system: FaDu cells; test: Cell growth of FaDu cells transfected with hTR antisense or sense; type: cell-based, human
# From the text: hTR antisense inhibits telomerase. The antisense study consisted of the following steps: (a) construction of a sense and antisense to the RNA portion of the human telomerase (hTR), (b) stable transfection of cells with the hTR antisense (or hTR sense control), and (c) determination of the ability of the hTR antisense to inhibit telomerase activity and induce telomere shortening. The methodologies are detailed in the art, for example, by Mo et al., Cancer Res. 2003.
# Transfection procedures. Transfection of the antisense construct used an IPTG-inducible mammalian expression system. The resulting clones were used for experiments.
# Effect of hTR antisense on cell growth. Table 2 summarizes the results which show a slower growth rate for the antisense +IPTG cells (i.e., cells that were transfected by hTR antisense and treated with IPTG to induce the expression of […]) compared to cells that had either not been transfected with the antisense, not transfected but treated with IPTG, transfected with the sense and treated with IPTG, or transfected with the antisense but without the IPTG induction (i.e., control, +IPTG, +sense +IPTG, and antisense).
structure (smiles),measurement,setting,value
CC(C)S[C@@H]1O[C@H](CO)[C@H](O)[C@H](O)[C@H]1O [+IPTG],"Telomerase activity, % of control",[1],98.9 % of control
same,Terminal restriction fragment,[2],2.91 kb
same,Doubling time,[3],23 h

# — patent US20050282893A1 (priority 2004, published 2005)
